Data reported in article PMC8708390, “Fatty Acid Modification of the Anticancer Peptide LVTX-9 to Enhance Its Cytotoxicity against Malignant Melanoma Cells” (Toxins, 2021).
Where no end group is shown, it is not given here.

Assays:
B16-F10 tumor spheroids = assay: Toxicity in 3D tumor spheroids; assay type: cell-based, mouse; conditions: 50 or 25 μM, RPMI-1640 with 10% serum, 3 days
Protocol: To further study the toxicity of LVTX-9 and LVTX-9-C18 in vitro, B16-F10 tumor spheroids, as 3D tumor models, were cultured according to protocols in the literature. Briefly, B16-F10 cells were seeded into an ultra-low attachment, 96-well, round-bottom plate (Corning) and cultured at 37 °C for 3–4 days. Then, the B16-F10 tumor spheroids were treated with 50 or 25 μM of LVTX-9 and 20 or 10 μM of LVTX-9-C18 in the RPMI-1640 supplied with 10% serum for 3 days. Subsequently, images were taken on days 0 and 3, and the cell viability was measured using a CellTiter-Glo 3D Cell Viability Assay (G9683).

B16-F10 cells [1] = assay: Scanning electron microscopy of cell membrane; assay type: cell-based, mouse; conditions: 50 μM, 24 h
Protocol: The morphologic changes of the cell membrane of B16-F10 cells treated with peptides were observed by SEM [14]. The cells were seeded on coverslips and placed into a six-well plate, then treated with LVTX-9 (50 μM) and LVTX-9-C18 (5 μM) for 24 h. After incubation, the B16-F10 cells were washed with sterile PBS gently three times and fixed with 2 mL of 2.5% glutaraldehyde solution in each well for 4 h at room temperature. Then, the fixed cells were dehydrated with a series of ethanol concentrations. We dried the samples with a Critical Point Dryer and coated them with gold plating before observation. A scanning electron microscope (Hitachi Su8010, Tokyo, Japan) was used to examine the prepared samples.

[2] = RP-HPLC retention time as measure of hydrophobicity; assay type: physicochemical; conditions: chromatographic, Vydac C18 300 Å 4.6 × 250 mm, 1.0 mL/min, gradient 30-100% acetonitrile/0.1% TFA, 215 nm, column 25 ± 5 °C; maximum height of peak
Protocol: Peptides were synthesized using the Fmoc SPPS methods. Briefly, the peptide LVTX-9 (AC-[…]-amide) was prepared on Rink Amide AM resin at a 0.2 mmol scale. A 4-fold excess of the Fmoc-protected amino acids was coupled with the Rink Amide AM resin using HCTU and HOBT as the activating agents in 5% NMM/DMF. After the synthesis of LVTX-9, the N-terminal Fmoc group was removed using 20% piperidine. As in the previous steps, a series of fatty acids (C12-C20) was activated in HCTU and HOBT using 5% NMM/DMF, and coupled to peptidyl resin for 2 h. Peptides were cleaved using trifluoroacetic acid (TFA)/thioanisole (TIS)/anisole (95:3:2 (v/v)) for 2.5 h, and the collected lysate was precipitated in cold diethyl ether three times. The precipitate was air-dried naturally. Next, the obtained crude products were purified using RP-HPLC (C18, 4.6 mm × 250 mm) on the basis of a 0.1% TFA/acetonitrile gradient from 30% to 100% in 46 min. Then, we collected the eluted peptides and determined the molecular mass using MALDI-TOF MS (AB, SCIEX, Waltham, MA, USA).
Figure 2 Purification and identification of five lipopeptides using RP-HPLC and MALDL-TOF MS: The purification of (A) LVTX-9-C12, (B) LVTX-9-C14, (C) LVTX-9-C16, (D) LVTX-9-C18, and (E) LVTX-9-C20 was performed using RP-HPLC (column, Vydac, C18, 300 Å, 4.6 × 250 mm). The lipopeptides were separated at a flow rate of 1.0 mL/min under a gradient of 30–100% acetonitrile/0.1% TFA. The elution of lipopeptides was monitored at 215 nm. Identification of (F) LVTX-9-C12, (G) LVTX-9-C14, (H) LVTX-9-C16, (I) LVTX-9-C18, and (J) LVTX-9-C20 by MALDI-TOF MS, respectively. The red star (*) represents the target peak. […]
Table S1. Purification gradient of peptides.
Time (min) Flow Rate (mL/min) A% B%
Wavelength: 215 nm/280 nm, column temperature: 25 ± 5 ℃, A: ddH2O (0.1% TFA), B: acetonitrile
(1 picture or pasted object on this page, not shown here)

erythrocytes = assay: Hemolytic activity; assay type: cell-based; conditions: 1% RBC in PBS, 30 min at 37 °C, absorbance 450 nm, 0.1% Triton-X 100 positive control
Protocol: The hemolytic activity levels of LVTX-9 and LVTX-9-C18 were confirmed as follows. Red blood cells (RBC) were washed with sterile PBS and centrifuged for 5 min at 1000 rpm. The supernatant was removed, and cells were resuspended in PBS at a final concentration of 1% (5 × 10^6/mL). The diluted RBC suspension (50 µL) was mixed with PBS (negative control), 0.1% Triton-X 100 (positive control), and LVTX-9 or LVTX-9-C18 with various concentrations at a 1:1 ratio. The mixtures were incubated for 30 min at 37 °C, then centrifuged for 5 min at 12,000 rpm. The supernatant (90 µL) was added to a new 96-well plate to measure the absorbance at 450 nm using a microplate reader, and we produced hemolytic activity curves by GraphPad prism 5.0.

[3] = Dynamic light scattering (hydrodynamic size, PDI, zeta potential); assay type: physicochemical; conditions: 100 µM in ultrapure water, 25 °C, repeated three times
Protocol: Dynamic light scattering (DLS) of Zetasizer Nano ZSP (Malvern Instruments, Malvern, UK) apparatus was used to determine the hydrodynamic size and zeta potential of LVTX-9 and LVTX-9-C18. The peptides concentrations were diluted to 100 µM with ultrapure water with a final volume of 1 mL. The procedure ran at 25 °C, with each experiment repeated three times. The secondary structures of LVTX-9 and LVTX-9-C18 were determined to be in line with the previous protocol. The peptide concentrations were then diluted to 100 µM with ultrapure water and 100 mM of SDS was added in a final volume of 250 μL. The procedure was carried out at 25 °C. CD spectra were recorded between 180 nm and 280 nm on a Jasco J-815 CD spectrometer.

B16-F10 cells [4] = assay: Colony formation assay; assay type: cell-based, mouse; conditions: 10 μM, 7 days, crystal violet, mean ± SD, n = 3, control group 51 ± 12.0
Protocol: To detect the proliferation of B16-F10 cells treated with LVTX-9 and LVTX-9-C18 at low concentrations, digested cells were counted using a Cellometer K2 and seeded into a 12-well plate with approximately 100 cells per well. After 36 h, cells were treated with LVTX-9 (10 μM) and LVTX-9-C18 (1 μM), then incubated for 7 days at 37 °C in a humidified 5% CO2 atmosphere. Visible colonies were stained with 0.5% crystal violet and photographically recorded. The colony formation rates were calculated, and curves were manufactured by GraphPad prism 5.0.

ASIGALIQKAIALIKAKAA-NH2 (C-terminus assumed) [LVTX-9]
growth of B16-F10 tumor spheroids at 50 or 25 μM (B16-F10 tumor spheroids): gradually grew | cell membrane morphology by SEM at 50 μM (B16-F10 cells [1]): intact membranes with smooth surfaces | TR (retention time, RP-HPLC; indicates the hydrophobicity of the peptides) [2]: 15.21 min | hemolytic activity at 200 μM (erythrocytes): almost no hemolytic activity | PDI (hydrodynamic size, DLS) [3]: 0.65 ± 0.0481 | colony number at 10 μM (B16-F10 cells [4]): 58 ± 11.4
